Reference: PubChem BioAssay (NCI)
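A five-concentration, 48-hour dose response in 96-well plates underlies each endpoint, interpolated linearly between surrounding concentrations. GI50 is the concentration that inhibits growth by half. TGI marks complete inhibition of growth.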

What was measured:
Assay in all cases: inhibition of tumour cell growth, NCI panel, 48 h
LOX IMVI melanoma = system: LOX IMVI melanoma
PC-3 prostate = system: PC-3 prostate
U251 CNS = system: U251 CNS
HS 578T breast = system: HS 578T breast
SK-MEL-28 melanoma = system: SK-MEL-28 melanoma
EKVX NSCLC = system: EKVX NSCLC
T-47D breast = system: T-47D breast
HT29 colon = system: HT29 colon
MOLT-4 leukemia = system: MOLT-4 leukemia
UACC-257 melanoma = system: UACC-257 melanoma
OVCAR-3 ovarian = system: OVCAR-3 ovarian
NCI-H23 lung = system: NCI-H23 lung
RPMI-8226 leukemia = system: RPMI-8226 leukemia
A549 NSCLC = system: A549 NSCLC
UO-31 renal = system: UO-31 renal
M14 melanoma = system: M14 melanoma
TK-10 renal = system: TK-10 renal
ACHN renal = system: ACHN renal
OVCAR-4 ovarian = system: OVCAR-4 ovarian
OVCAR-5 ovarian = system: OVCAR-5 ovarian
786-0 renal = system: 786-0 renal
NCI-H460 lung = system: NCI-H460 lung
HCT-15 colon = system: HCT-15 colon
SNB-75 CNS = system: SNB-75 CNS
HCT-116 colon = system: HCT-116 colon
CCRF-CEM leukemia = system: CCRF-CEM leukemia
SK-MEL-5 melanoma = system: SK-MEL-5 melanoma
SNB-19 CNS = system: SNB-19 CNS
HOP-92 NSCLC = system: HOP-92 NSCLC
SK-MEL-2 melanoma = system: SK-MEL-2 melanoma
COLO 205 colon = system: COLO 205 colon
SR leukemia = system: SR leukemia
MDA-MB-231 breast = system: MDA-MB-231 breast
NCI-H226 lung = system: NCI-H226 lung
MALME-3M melanoma = system: MALME-3M melanoma
DU-145 prostate = system: DU-145 prostate
OVCAR-8 ovarian = system: OVCAR-8 ovarian
K-562 leukemia = system: K-562 leukemia
KM12 colon = system: KM12 colon
RXF 393 renal = system: RXF 393 renal
HL-60(TB) leukemia = system: HL-60(TB) leukemia
NCI-H522 lung = system: NCI-H522 lung
SF-539 CNS = system: SF-539 CNS
SN12C renal = system: SN12C renal
MDA-MB-435 = system: MDA-MB-435
NCI/ADR-RES ovarian = system: NCI/ADR-RES ovarian
A498 renal = system: A498 renal
SW-620 colon = system: SW-620 colon
MCF7 breast = system: MCF7 breast
IGROV1 ovarian = system: IGROV1 ovarian
SF-268 CNS = system: SF-268 CNS
BT-549 breast = system: BT-549 breast
UACC-62 melanoma = system: UACC-62 melanoma
SK-OV-3 ovarian = system: SK-OV-3 ovarian
CAKI-1 renal = system: CAKI-1 renal
SF-295 CNS = system: SF-295 CNS
HOP-62 NSCLC = system: HOP-62 NSCLC
HCC-2998 colon = system: HCC-2998 colon

For `CNCCN(C)c1ccc(Nc2cc(NC3CC3)n3ncc(C#N)c3n2)cc1NC(C)=O`, the GI50 (LOX IMVI melanoma) was 20.4 nM, the TGI (LOX IMVI melanoma) was 390 nM and the GI50 (PC-3 prostate) was under 10 nM. For the same molecule, the TGI (PC-3 prostate) was 13200 nM, the GI50 (U251 CNS) was under 10 nM and the TGI (U251 CNS) was over 100000 nM. It also gave a GI50 (HS 578T breast) of under 10 nM, a TGI (HS 578T breast) of 117 nM and a GI50 (SK-MEL-28 melanoma) of 39.3 nM. It also gave a TGI (SK-MEL-28 melanoma) of 18600 nM, a GI50 (EKVX NSCLC) of under 13 nM and a TGI (EKVX NSCLC) of 4040 nM. The GI50 (T-47D breast) was under 10 nM, the TGI (T-47D breast) was 1340 nM and the GI50 (HT29 colon) was under 10 nM. The TGI (HT29 colon) was over 100000 nM, the GI50 (MOLT-4 leukemia) was 18.6 nM and the GI50 (UACC-257 melanoma) was 16.3 nM. For the same molecule, the TGI (UACC-257 melanoma) was 10700 nM, the GI50 (OVCAR-3 ovarian) was under 10 nM and the TGI (OVCAR-3 ovarian) was 869 nM. The GI50 (NCI-H23 lung) was under 10 nM, the TGI (NCI-H23 lung) was 237 nM and the GI50 (RPMI-8226 leukemia) was under 10 nM. For the same molecule, the TGI (RPMI-8226 leukemia) was 2640 nM, the GI50 (A549 NSCLC) was 18.8 nM and the TGI (A549 NSCLC) was 12500 nM. It also gave a GI50 (UO-31 renal) of 143 nM, a TGI (UO-31 renal) of 3790 nM and a GI50 (M14 melanoma) of under 11.8 nM. The TGI (M14 melanoma) was 452 nM, the GI50 (TK-10 renal) was under 10 nM and the TGI (TK-10 renal) was 45.3 nM. For the same molecule, the GI50 (ACHN renal) was 73 nM, the TGI (ACHN renal) was 15400 nM and the GI50 (OVCAR-4 ovarian) was under 10 nM. For the same molecule, the TGI (OVCAR-4 ovarian) was over 39200 nM, the GI50 (OVCAR-5 ovarian) was under 10 nM and the TGI (OVCAR-5 ovarian) was over 28500 nM. The GI50 (786-0 renal) was 43.6 nM, the TGI (786-0 renal) was 13500 nM and the GI50 (NCI-H460 lung) was under 10 nM. The TGI (NCI-H460 lung) was 12400 nM, the GI50 (HCT-15 colon) was 290 nM and the TGI (HCT-15 colon) was over 100000 nM. It also gave a GI50 (SNB-75 CNS) of under 10 nM, a TGI (SNB-75 CNS) of 51.9 nM and a GI50 (HCT-116 colon) of under 10 nM. The TGI (HCT-116 colon) was 195 nM, the GI50 (CCRF-CEM leukemia) was under 10 nM and the TGI (CCRF-CEM leukemia) was 6000 nM. The GI50 (SK-MEL-5 melanoma) was under 10 nM, the TGI (SK-MEL-5 melanoma) was 462 nM and the GI50 (SNB-19 CNS) was under 10 nM. The TGI (SNB-19 CNS) was over 100000 nM, the GI50 (HOP-92 NSCLC) was under 10 nM and the TGI (HOP-92 NSCLC) was 46.6 nM. The GI50 (SK-MEL-2 melanoma) was 20.2 nM, the TGI (SK-MEL-2 melanoma) was 445 nM and the GI50 (COLO 205 colon) was under 10 nM. For the same molecule, the TGI (COLO 205 colon) was 2330 nM, the GI50 (SR leukemia) was under 10 nM and the TGI (SR leukemia) was 5730 nM. It also gave a GI50 (MDA-MB-231 breast) of under 10 nM, a TGI (MDA-MB-231 breast) of 2170 nM and a GI50 (NCI-H226 lung) of under 10 nM. It also gave a TGI (NCI-H226 lung) of 1230 nM, a GI50 (MALME-3M melanoma) of 16.6 nM and a TGI (MALME-3M melanoma) of 3180 nM. The GI50 (DU-145 prostate) was 45.2 nM, the TGI (DU-145 prostate) was over 100000 nM and the GI50 (OVCAR-8 ovarian) was 59.2 nM. It also gave a TGI (OVCAR-8 ovarian) of over 100000 nM, a GI50 (K-562 leukemia) of under 13.8 nM and a TGI (K-562 leukemia) of over 40100 nM. It also gave a GI50 (KM12 colon) of 25.9 nM, a TGI (KM12 colon) of over 80100 nM and a GI50 (RXF 393 renal) of 10 nM. It also gave a TGI (RXF 393 renal) of 34.2 nM, a GI50 (HL-60(TB) leukemia) of under 10 nM and a TGI (HL-60(TB) leukemia) of 498 nM. The GI50 (NCI-H522 lung) was under 10 nM, the TGI (NCI-H522 lung) was 1130 nM and the GI50 (SF-539 CNS) was 14 nM. For the same molecule, the TGI (SF-539 CNS) was 2360 nM, the GI50 (SN12C renal) was 75.2 nM and the TGI (SN12C renal) was over 64200 nM. The GI50 (MDA-MB-435) was 16.1 nM, the TGI (MDA-MB-435) was over 41100 nM and the GI50 (NCI/ADR-RES ovarian) was 3360 nM. It also gave a TGI (NCI/ADR-RES ovarian) of over 100000 nM, a GI50 (A498 renal) of under 11.7 nM and a TGI (A498 renal) of under 26 nM. The GI50 (SW-620 colon) was under 10 nM, the TGI (SW-620 colon) was 209 nM and the GI50 (MCF7 breast) was under 10 nM. For the same molecule, the TGI (MCF7 breast) was 1590 nM, the GI50 (IGROV1 ovarian) was under 10.7 nM and the TGI (IGROV1 ovarian) was 961 nM. It also gave a GI50 (SF-268 CNS) of 18.2 nM, a TGI (SF-268 CNS) of 16400 nM and a GI50 (BT-549 breast) of under 14 nM. The TGI (BT-549 breast) was 165 nM, the GI50 (UACC-62 melanoma) was 19.5 nM and the TGI (UACC-62 melanoma) was 149 nM. The GI50 (SK-OV-3 ovarian) was 35.7 nM, the TGI (SK-OV-3 ovarian) was 668 nM and the GI50 (CAKI-1 renal) was 12.3 nM. It also gave a TGI (CAKI-1 renal) of 153 nM, a GI50 (SF-295 CNS) of 27.7 nM and a TGI (SF-295 CNS) of 12500 nM. The GI50 (HOP-62 NSCLC) was 27.5 nM, the TGI (HOP-62 NSCLC) was over 54400 nM and the GI50 (HCC-2998 colon) was 17.5 nM. It also gave a TGI (HCC-2998 colon) of 16400 nM.
